Experimental data published in US20250263370A1 (Tay Therapeutics Limited, priority 2022, published 2025).
Several values for one entry are separate records, joined by “and”; a condition that tells them apart may be missing. Identical values can stand only once.

System: collagen-induced arthritis
Test: Collagen-induced arthritis (CIA) model in rats: body weight, paw volume, clinical scores, clinical observations; on Average detailed clinical score, left hind limb: key of the grades not given here; on Average detailed clinical score, right hind limb: key of the grades not given here; on Detailed Clinical Scores, left forelimb: key of the grades not given here; on Detailed Clinical Scores, left hind limb: key of the grades not given here; on Detailed Clinical Scores, right forelimb: key of the grades not given here; on Detailed Clinical Scores, right hind limb: key of the grades not given here; on Detailed Clinical Scores, score: key of the grades not given here; on Mean overall clinical score ± SD: key of the grades not given here; on Overall clinical score: key of the grades not given here
Settings: for Mean animal paw volume ± SD: group mean; for Detailed Clinical Scores, left forelimb / Detailed Clinical Scores, left hind limb / Detailed Clinical Scores, right forelimb / Detailed Clinical Scores, right hind limb / Detailed Clinical Scores, score: individual animals ID 1-8; for Overall clinical score: individual animals #1-8
[1] = CIA rats, daily P.O. (group 4), day 21
[2] = CIA rats, daily P.O. for 21 days

Protocol: Prior to be randomly placed in treatment groups, animals were weighed, and paw volume was measured. Once randomly assigned to treatment groups, on Day 0, animals in groups 2-9 were immunized by subcutaneous injection at the base of the tail.
The immunization comprised 100 μL of the CFA+Collagen emulsion (prepared according to the method in Experimental Method A). Animals in group one received no immunization. Seven days after the first injection, animals in groups 2-9 received a booster immunization comprising 200 μL of the IFA+Collagen emulsion (prepared according to the method in Experimental Method A).
Starting on Day 0, animals in group 1 and 2 were administered daily doses of the vehicle per os (P.O.) for 21 days. […] The twice daily doses for animals in groups 4-9 were 8 hours apart (e.g., the first dose at 8:00 AM and the second dose at 4:00 PM).
Body weight of all animals was recorded daily for the 21-day period. Blind clinical scores on all four limbs were conducted for all animals in the study. Animals were assessed prior to receiving their first dose of the compound or control, and scores for each limb were combined to a total daily score for each animal. Clinical score assessments were performed on Day 0, 6, 12, 13, 14, 15, 18, 19, and 21 (for a total of 9 daily scores).
Paw volume was recorded for each animal on Day 0, 6, 12, 13, 14, 15, 18, 19, and 21 (for a total of 9 measurements). To measure paw volume, animals were gently held with one hand while the hind paw was placed into a plethysmometer with the other hand. Lipid displacement by the paw was recorded and used to represent paw volume.
All data measured and recorded was analyzed using SPSS 16.0 software. Groups were compared using one-way ANOVA and significance was set at p<0.05.

Compound: CNC(=O)c1cc(C(=O)NC2CC2)cn(Cc2ccccc2)c1=O [GSK620]
- Average animal paw volume percent change (CIA rats, Day 0, left hind paw (L)): 0.00%
- Animal paw volume Day 0 L (CIA rats, Day 0, left paw, individual animals): 1.27 mL (2×) and 1.32 mL (2×) and 1.37 mL (2×) and 1.34 mL and 1.35 mL
- Average animal paw volume percent change (CIA rats, Day 0, right hind paw (R)): 0.00%
- Animal paw volume Day 0 R (CIA rats, Day 0, right paw, individual animals): 1.27 mL and 1.31 mL and 1.28 mL and 1.37 mL (2×) and 1.33 mL (2×) and 1.34 mL
- Average animal paw volume percent change (CIA rats, Day 6, left hind paw (L)): 1.04%
- Animal paw volume Day 6 L (CIA rats, Day 6, left paw, individual animals): 1.27 mL and 1.34 mL (2×) and 1.37 mL and 1.36 mL and 1.38 mL and 1.32 mL and 1.35 mL
- Average animal paw volume percent change (CIA rats, Day 6, right hind paw (R)): 1.50%
- Animal paw volume Day 6 R (CIA rats, Day 6, right paw, individual animals): 1.27 mL and 1.35 mL and 1.38 mL and 1.37 mL and 1.39 mL and 1.33 mL (2×) and 1.34 mL
- Average animal paw volume percent change (CIA rats, Day 12, left hind paw (L)): 3.13%
- Animal paw volume Day 12 L (CIA rats, Day 12, left paw, individual animals): 1.33 mL (2×) and 1.41 mL and 1.37 mL and 1.42 mL and 1.36 mL and 1.35 mL and 1.38 mL
- Average animal paw volume percent change (CIA rats, Day 12, right hind paw (R)): 3.69%
- Animal paw volume Day 12 R (CIA rats, Day 12, right paw, individual animals): 1.31 mL and 1.35 mL and 1.42 mL and 1.39 mL (2×) and 1.38 mL (2×) and 1.37 mL
- Average animal paw volume percent change (CIA rats, Day 13, left hind paw (L)): 4.09%
- Animal paw volume Day 13 L (CIA rats, Day 13, left paw, individual animals): 1.34 mL (2×) and 1.43 mL (2×) and 1.36 mL and 1.37 mL and 1.38 mL and 1.40 mL
- Average animal paw volume percent change (CIA rats, Day 13, right hind paw (R)): 6.88%
- Animal paw volume Day 13 R (CIA rats, Day 13, right paw, individual animals): 1.40 mL and 1.35 mL and 1.42 mL (2×) and 1.57 mL and 1.37 mL and 1.41 mL and 1.39 mL
- Average animal paw volume percent change (CIA rats, Day 14, left hind paw (L)): 17.19%
- Animal paw volume Day 14 L (CIA rats, Day 14, left paw, individual animals): 1.55 mL and 1.78 mL and 1.44 mL and 1.36 mL and 1.43 mL and 1.40 mL and 1.73 mL (2×)
- Average animal paw volume percent change (CIA rats, Day 14, right hind paw (R)): 26.62%
- Animal paw volume Day 14 R (CIA rats, Day 14, right paw, individual animals): 1.74 mL and 1.49 mL and 1.44 mL and 2.11 mL and 1.43 mL and 1.38 mL and 1.99 mL and 1.83 mL
- Average animal paw volume percent change (CIA rats, Day 15, left hind paw (L)): 31.82%
- Animal paw volume Day 15 L (CIA rats, Day 15, left paw, individual animals): 2.04 mL and 2.03 mL and 1.39 mL and 1.49 mL and 1.52 mL and 1.60 mL and 2.14 mL and 1.75 mL
- Average animal paw volume percent change (CIA rats, Day 15, right hind paw (R)): 40.45%
- Animal paw volume Day 15 R (CIA rats, Day 15, right paw, individual animals): 2.05 mL and 2.08 mL and 1.38 mL and 2.42 mL and 1.47 mL and 1.56 mL and 2.13 mL and 1.79 mL
- Average animal paw volume percent change (CIA rats, Day 18, left hind paw (L)): 87.52%
- Animal paw volume Day 18 L (CIA rats, Day 18, left paw, individual animals): 2.72 mL and 2.54 mL and 2.39 mL and 2.87 mL and 2.29 mL and 2.05 mL and 2.66 mL and 2.34 mL
- Average animal paw volume percent change (CIA rats, Day 18, right hind paw (R)): 78.42%
- Animal paw volume Day 18 R (CIA rats, Day 18, right paw, individual animals): 2.62 mL and 2.45 mL and 2.41 mL and 3.15 mL and 1.46 mL and 2.04 mL and 2.38 mL and 2.34 mL
- Average animal paw volume percent change (CIA rats, Day 19, left hind paw (L)): 92.23%
- Animal paw volume Day 19 L (CIA rats, Day 19, left paw, individual animals): 2.71 mL and 2.54 mL and 2.32 mL (2×) and 3.06 mL and 2.61 mL and 2.19 mL and 2.63 mL
- Average animal paw volume percent change (CIA rats, Day 19, right hind paw (R)): 78.62%
- Animal paw volume Day 19 R (CIA rats, Day 19, right paw, individual animals): 2.59 mL and 2.46 mL and 2.33 mL (2×) and 3.15 mL and 1.46 mL and 2.20 mL and 2.36 mL
- Average animal paw volume percent change (CIA rats, Day 21, left hind paw (L)): 91.34%
- Animal paw volume Day 21 L (CIA rats, Day 21, left paw, individual animals): 2.71 mL and 2.51 mL and 2.34 mL and 3.04 mL and 2.62 mL and 2.21 mL and 2.54 mL and 2.32 mL
- Average animal paw volume percent change (CIA rats, Day 21, right hind paw (R)): 78.28%
- Animal paw volume Day 21 R (CIA rats, Day 21, right paw, individual animals): 2.63 mL and 2.44 mL and 2.21 mL and 3.08 mL and 1.61 mL and 2.18 mL and 2.37 mL and 2.33 mL
- animals with a clinical score of at least 2 in one or more hind limbs (CIA rats, daily P.O. (group 4), day 14): 5/8
- animals with clinical scores of 3 or greater in one or more hind limbs (CIA rats, daily P.O. (group 4), day 18): all animals
- animals with a clinical score of 4 in each hind limb [1]: 3/8
- animals with a score of 4 in at least one hind limb [1]: 5/8
- day on which clinical scores started to increase [2]: 14 days
- effect on hind paw volume [2]: less effective at preventing an increase in paw volume over the course of the study
- average overall clinical score at plateau (CIA rats, daily P.O. for 21 days, around day 18): 8
- animals showing signs of disease (CIA rats, daily P.O., day 12): No animals
- animals exhibiting disease (CIA rats, daily P.O., day 13): 1/8
- animals exhibiting disease (CIA rats, daily P.O., day 14): 5/8
- animals exhibiting disease (CIA rats, daily P.O., day 15): 7/8
- animals exhibiting disease (CIA rats, daily P.O., day 18): all animals
- Mean animal paw volume ± SD (Day 0, L paw): 1.32 mL
- Animal paw volume percent change (Day 0, L paw, individual animals): 0.00%
- Mean animal paw volume ± SD (Day 0, R paw): 1.32 mL
- Animal paw volume percent change (Day 0, R paw, individual animals): 0.00%
- Average detailed clinical score, left forelimb (Day 0, CIA rats): 0.00
- Average detailed clinical score, left hind limb (Day 0, CIA rats): 0.00
- Average detailed clinical score, right forelimb (Day 0, CIA rats): 0.00
- Average detailed clinical score, right hind limb (Day 0, CIA rats): 0.00
- Average detailed clinical score, score (Day 0, CIA rats): 0.00
- Mean overall clinical score ± SD (Day 0, CIA rats): 0 ± 0
- Detailed Clinical Scores, left forelimb (Day 0, CIA rats): 0
- Detailed Clinical Scores, left hind limb (Day 0, CIA rats): 0
- Detailed Clinical Scores, right forelimb (Day 0, CIA rats): 0
- Detailed Clinical Scores, right hind limb (Day 0, CIA rats): 0
- Detailed Clinical Scores, score (Day 0, CIA rats): 0
- Overall clinical score (Day 0, CIA rats): 0
- Mean animal paw volume ± SD (Day 6, L paw): 1.34 mL
- Animal paw volume percent change (Day 6, L paw, individual animals): −0.39% and 1.52% and 7.91% and −0.73% and 0.36% and 0.00% (2×) and −0.37%
- Mean animal paw volume ± SD (Day 6, R paw): 1.34 mL
- Animal paw volume percent change (Day 6, R paw, individual animals): −0.39% and 3.07% and 7.84% and 0.00% (4×) and 1.47%
- Average detailed clinical score, left forelimb (Day 6, CIA rats): 0.00
- Average detailed clinical score, left hind limb (Day 6, CIA rats): 0.00
- Average detailed clinical score, right forelimb (Day 6, CIA rats): 0.00
- Average detailed clinical score, right hind limb (Day 6, CIA rats): 0.00
- Average detailed clinical score, score (Day 6, CIA rats): 0.00
- Mean overall clinical score ± SD (Day 6, CIA rats): 0 ± 0
- Detailed Clinical Scores, left forelimb (Day 6, CIA rats): 0
- Detailed Clinical Scores, left hind limb (Day 6, CIA rats): 0
- Detailed Clinical Scores, right forelimb (Day 6, CIA rats): 0
- Detailed Clinical Scores, right hind limb (Day 6, CIA rats): 0
- Detailed Clinical Scores, score (Day 6, CIA rats): 0
- Overall clinical score (Day 6, CIA rats): 0
- Mean animal paw volume ± SD (Day 12, L paw): 1.36 mL
- Animal paw volume percent change (Day 12, L paw, individual animals): 4.33% and 0.76% and 11.07% and 0.00% and 3.28% and 1.50% and 2.28% and 1.85%
- Mean animal paw volume ± SD (Day 12, R paw): 1.37 mL
- Animal paw volume percent change (Day 12, R paw, individual animals): 2.76% and 3.07% and 10.98% and 1.47% (2×) and 3.77% (2×) and 2.25%
- Average detailed clinical score, left forelimb (Day 12, CIA rats): 0.00
- Average detailed clinical score, left hind limb (Day 12, CIA rats): 0.00
- Average detailed clinical score, right forelimb (Day 12, CIA rats): 0.00
- Average detailed clinical score, right hind limb (Day 12, CIA rats): 0.00
- Average detailed clinical score, score (Day 12, CIA rats): 0.00
- Mean overall clinical score ± SD (Day 12, CIA rats): 0 ± 0
- Detailed Clinical Scores, left forelimb (Day 12, CIA rats): 0
- Detailed Clinical Scores, left hind limb (Day 12, CIA rats): 0
- Detailed Clinical Scores, right forelimb (Day 12, CIA rats): 0
- Detailed Clinical Scores, right hind limb (Day 12, CIA rats): 0
- Detailed Clinical Scores, score (Day 12, CIA rats): 0
- Overall clinical score (Day 12, CIA rats): 0
